Like-named read-outs stand apart in the source and are kept apart here.
Experiments:
bombesin receptors = assay: Receptor autoradiography of human tumor tissue sections with the radioligand; type: binding
Method: Various tumor tissue samples, including surrounding tissue, were harvested from human patients and/or human cadavers, and frozen. The samples were cut on a cryostat, mounted on microscope slides, and then stored at −20° C. for […] improve adhesion of the tissue to the slide. The slide-mounted tissue sections were allowed to reach room temperature and preincubated in 50 mmol/1 Tris-HCl, 130 mmol/1 NaCl, 4.7 mmol/1 KCl, 5 mmol/I MgCl2, 1 mmol/l ethylene glycol-bi (b-aminoethylether)-N, N, N′, N′-tetraacetic acid, and 0.5% bovine serum albumin, pH 7.4 (preincubation solution), for 30 min. at 25° C. The slides are then incubated in a solution containing the same medium as the preincubation solution except the bovine serum albumin is omitted, and the following compounds are added: 20000 dpm/100 ml of the radioligand of Example 1, 0.025% bacitracin, 1 mmol/l dithiothreitol, 2 mg/ml chymostatin, and 4 mg/ml leupeptin, pH=6.5. The slides are incubated at room temperature with the radioligand for 150 min., as described by Mantyh et al. (Gasteroenterology, 1994, 107, 1019-30). After the incubation, the slides are rinsed with four washes of 30 sec each in ice-cold preincubation solution, pH 7.4, dipped in ice-cold water, and then quickly dried in a refrigerator under a stream of cold air. The sections are subsequently exposed to a ^3H Ultrofilm for 1 week, to detect the precise location of the radioactivity.
The films were evaluated to determine the ability to distinguish the tumor from the surrounding tissue.

in vivo = details: rat, total radioactivity
[1] = rats
[2] = Dynamic gamma camera: clearance and excretion of radioactivity; details: rat, in vivo
[3] = for 2 h after labeling with IN-111 up to 100 Mbq per jj. g; HPLC
[4] = test system: bombesin receptor positive prolactinoma 7315b; details: female Lewis rats; visualized by scintigraphy
[5] = rats; cited from earlier work
7315b cells = details: read-out: agonistic activities on bombesin stimulated prolactin secretion, IC50
[6] = Breat Cancer Metastases, 5 samples
[7] = Non Small Cell Lung Carcinoma, 34 samples
[8] = Prostate Cancer Metastases, 5 samples
[9] = Small Cell Lung Carcinoma, 10 samples
[10] = Uterus Leomyosarcoma Tumor, 3 samples
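Throughout, for Tissue RA, Pancreas: radiolabelled ligand targeting bombesin receptors, given by intravenous injection at varied injected mass.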
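Throughout, for ratio vs. blood, Adrenal: radiolabelled ligand targeting bombesin receptors, given by intravenous injection at varied injected mass.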
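Throughout, for ratio vs. blood, Colon: radiolabelled ligand targeting bombesin receptors, given by intravenous injection at varied injected mass.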
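Throughout, for uptake in pancreas and tissues of the GI tract: radiolabelled ligand targeting bombesin receptors, given by intravenous injection at varied injected mass.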

Question: For “pGlu-Gln-Arg-Tyr-Gly-Asn-Gln-Trp-Ala-Val-Gly-His-Leu-Met-NH2 [[^125I-Tyr^4] bombesin]”, which “% Positive” value (bombesin receptors; Breast Cancer, 95 samples) is on record?
Answer: 69%

Question: And the “Number Positive” value (bombesin receptors; Breast Cancer, 95 samples)?
Answer: 66

Question: What about the “% Positive” value (bombesin receptors; [6]) of the same molecule?
Answer: 100%

Question: What about the “Number Positive” value (bombesin receptors; [6]) of the same molecule?
Answer: 5

Question: And the “% Positive” value (bombesin receptors; Colon Cancer, 18 samples)?
Answer: 6%

Question: And the “Number Positive” value (bombesin receptors; Colon Cancer, 18 samples)?
Answer: 1

Question: What about the “% Positive” value (bombesin receptors; Gastric Cancer, 27 samples) of the same molecule?
Answer: 0%

Question: And the “Number Positive” value (bombesin receptors; Gastric Cancer, 27 samples)?
Answer: 0

Question: What about the “% Positive” value (bombesin receptors; Gastrinomas, 4 samples) of the same molecule?
Answer: 100%

Question: What about the “Number Positive” value (bombesin receptors; Gastrinomas, 4 samples) of the same molecule?
Answer: 4

Question: And the “% Positive” value (bombesin receptors; Glioblastomas, 4 samples)?
Answer: 100%

Question: And the “Number Positive” value (bombesin receptors; Glioblastomas, 4 samples)?
Answer: 4

Question: And the “% Positive” value (bombesin receptors; Melanomas, 8 samples)?
Answer: 12%

Question: And the “Number Positive” value (bombesin receptors; Melanomas, 8 samples)?
Answer: 1

Question: And the “% Positive” value (bombesin receptors; [7])?
Answer: 0%

Question: What about the “Number Positive” value (bombesin receptors; [7]) of the same molecule?
Answer: 0

Question: What about the “% Positive” value (bombesin receptors; Pancreatic Cancer, 28 samples) of the same molecule?
Answer: 0%

Question: What about the “Number Positive” value (bombesin receptors; Pancreatic Cancer, 28 samples) of the same molecule?
Answer: 0

Question: And the “% Positive” value (bombesin receptors; [8])?
Answer: 100%

Question: What about the “Number Positive” value (bombesin receptors; [8]) of the same molecule?
Answer: 5

Question: And the “% Positive” value (bombesin receptors; Prostate Cancer, 28 samples)?
Answer: 100%

Question: What about the “Number Positive” value (bombesin receptors; Prostate Cancer, 28 samples) of the same molecule?
Answer: 28

Question: And the “% Positive” value (bombesin receptors; [9])?
Answer: 20%

Question: What about the “Number Positive” value (bombesin receptors; [9]) of the same molecule?
Answer: 2

Question: And the “% Positive” value (bombesin receptors; [10])?
Answer: 33%

Question: And the “Number Positive” value (bombesin receptors; [10])?
Answer: 1

Question: Which tissue uptake at 48 h (in vivo; adrenal, 0.01 ug) does the source give for CSCC[C@H](NC(=O)[C@H](CC(C)C)NC(=O)[C@H](Cc1c[nH]cn1)NC(=O)CNC(=O)[C@@H](NC(=O)[C@H](C)NC(=O)[C@H](Cc1c[nH]c2ccccc12)NC(=O)[C@H](CCC(N)=O)NC(=O)[C@H](CC(N)=O)NC(=O)CNC(=O)[C@H](Cc1ccc(O)cc1)NC(=O)[C@H](CCCNC(=N)N)NC(=O)[C@H](CCC(N)=O)NC(=O)[C@@H]1CCCN1C(=O)CN(CCN(CCN(CC(=O)O)CC(=O)O)CC(=O)O)CC(=O)O)C(C)C)C(N)=O [[^111In-DTPA^0, Pro^1, Tyr^4] bombesin, metal not drawn] here?
Answer: 0.029 %ID/g

Question: And the tissue uptake at 48 h (in vivo; adrenal, 0.025 ug)?
Answer: 0.03 %ID/g

Question: What about the tissue uptake at 48 h (in vivo; adrenal, 0.1 ug) of the same molecule?
Answer: 0.022 %ID/g

Question: And the tissue uptake at 48 h (in vivo; adrenal, 0.5 ug)?
Answer: 0.014 %ID/g

Question: What about the tissue uptake at 48 h (in vivo; blood, 0.01 ug) of the same molecule?
Answer: 0.0009 %ID/g

Question: And the tissue uptake at 48 h (in vivo; blood, 0.025 ug)?
Answer: 0.001 %ID/g

Question: What about the tissue uptake at 48 h (in vivo; blood, 0.5 ug) of the same molecule?
Answer: 0.0008 %ID/g

Question: And the tissue uptake at 48 h (in vivo; blood, iv, 0.1 ug)?
Answer: 0.0009 %ID/g

Question: What about the tissue uptake at 48 h (in vivo; bombesin receptor positive tissues) of the same molecule?
Answer: 0.025 %ID/g

Question: And the tissue uptake at 48 h (in vivo; colon, 0.01 ug)?
Answer: 0.072 %ID/g

Question: And the tissue uptake at 48 h (in vivo; colon, 0.025 ug)?
Answer: 0.063 %ID/g

Question: What about the tissue uptake at 48 h (in vivo; colon, 0.1 ug) of the same molecule?
Answer: 0.061 %ID/g

Question: What about the tissue uptake at 48 h (in vivo; colon, 0.5 ug) of the same molecule?
Answer: 0.036 %ID/g

Question: What about the tissue uptake at 48 h (in vivo; pancreas, 0.025 ug) of the same molecule?
Answer: 1.2 %ID/g

Question: And the tissue uptake at 48 h (in vivo; pancreas, 0.1 ug)?
Answer: 0.72 %ID/g

Question: What about the tissue uptake at 48 h (in vivo; pancreas, 0.5 ug) of the same molecule?
Answer: 0.43 %ID/g

Question: And the tissue uptake at 48 h (in vivo; stomach, 0.01 ug)?
Answer: 0.035 %ID/g

Question: And the tissue uptake at 48 h (in vivo; stomach, 0.025 ug)?
Answer: 0.065 %ID/g

Question: And the tissue uptake at 48 h (in vivo; stomach, 0.1 ug)?
Answer: 0.042 %ID/g

Question: What about the tissue uptake at 48 h (in vivo; stomach, 0.5 ug) of the same molecule?
Answer: 0.036 %ID/g

Question: What about the “uptake in pancreas and tissues of the GI tract” value [1] of the same molecule?
Answer: high and specific uptake

Question: And the “Tissue RA, Pancreas” value ([1]; 48 h after injection, 0.01 μg)?
Answer: 1.0 % ID/g

Question: What about the “ratio vs. blood, Adrenal” value ([1]; 48 h after injection, 0.01 μg) of the same molecule?
Answer: 34

Question: What about the “ratio vs. blood, Colon” value ([1]; 48 h after injection, 0.01 μg) of the same molecule?
Answer: 85

Question: What about the “ratio vs. blood, Pancreas” value ([1]; 48 h after injection, 0.01 μg) of the same molecule?
Answer: 1210

Question: And the “ratio vs. blood, Stomach” value ([1]; 48 h after injection, 0.01 μg)?
Answer: 40

Question: And the “ratio vs. blood, Adrenal” value ([1]; 48 h after injection, 0.025 μg)?
Answer: 30

Question: And the “ratio vs. blood, Colon” value ([1]; 48 h after injection, 0.025 μg)?
Answer: 64

Question: And the “ratio vs. blood, Pancreas” value ([1]; 48 h after injection, 0.025 μg)?
Answer: 1217

Question: What about the “ratio vs. blood, Stomach” value ([1]; 48 h after injection, 0.025 μg) of the same molecule?
Answer: 64

Question: What about the “ratio vs. blood, Adrenal” value ([1]; 48 h after injection, 0.1 μg) of the same molecule?
Answer: 26

Question: And the “ratio vs. blood, Colon” value ([1]; 48 h after injection, 0.1 μg)?
Answer: 73

Question: What about the “ratio vs. blood, Pancreas” value ([1]; 48 h after injection, 0.1 μg) of the same molecule?
Answer: 856

Question: What about the “ratio vs. blood, Stomach” value ([1]; 48 h after injection, 0.1 μg) of the same molecule?
Answer: 50

Question: What about the “ratio vs. blood, Adrenal” value ([1]; 48 h after injection, 0.5 μg) of the same molecule?
Answer: 18

Question: And the “ratio vs. blood, Colon” value ([1]; 48 h after injection, 0.5 μg)?
Answer: 52

Question: What about the “ratio vs. blood, Pancreas” value ([1]; 48 h after injection, 0.5 μg) of the same molecule?
Answer: 574

Question: And the “ratio vs. blood, Stomach” value ([1]; 48 h after injection, 0.5 μg)?
Answer: 50

Question: And the total body retention [2]?
Answer: 10%

Question: What about the “clearance of radioactivity from the blood compartment” value (dynamic gamma camera) of the same molecule?
Answer: rapid clearance

Question: What about the urinary excretion (in 1 h) of the same molecule?
Answer: 35%

Question: And the urinary excretion (in 20 h)?
Answer: 70%

Question: And the radiochemically stable [3]?
Answer: > 95%

Question: What about the “uptake in bombesin receptor positive prolactinoma 7315b” value [4] of the same molecule?
Answer: Specific uptake

Question: And the “uptake in the pancreas and tissues of the GI-tract” value [5]?
Answer: high and specific uptake

Question: What about the IC50 (7315b cells) of the same molecule?
Answer: 8 nM

Source: patent US6866837B2, “Radiolabeled peptides for the diagnosis and treatment of breast and prostate tumors and metastases of such tumors” (Mallinckrodt Inc., priority 1998, dated 2005)
